Assays:
RAW 264.7 cells [1] = assay: Effect of inhibiting production of NO in LPS-stimulated RAW 264.7 cells (Griess reagent); format: cell-based, mouse; settings: compound 2 μg/mL, RAW 264.7 cells stimulated with LPS 25 ng/mL
Description: (§1) Effect of Inhibiting Production of NO and IL-6
(§2) Growth of RAW 264.7 cells (mouse macrophage strains) was maintained in an RPMI 1640 medium containing 10% fetal bovine serum (FBS) and an antibiotic (10% FBS/RPMI) under culture conditions of 5% CO2 at 37° C. Upon testing, RAW 264.7 cells were washed with cold Dulbecco's phosphate buffered saline and subsequently removed from the plastic culture bottle by use of EDTA/trypsin. The thus-removed cells were centrifuged-and washed, followed by dilution with 10% FBS/RPMI to 4×10^5/mL. The cell suspension (0.5 mL) was added to each well of a 24-well-plate, and cultured under 5% CO2, at 37° C. for 16 hours. […] The live cells were washed once with 1% FBS/RPMI. Each test compound was diluted with the same medium, to thereby adjust the concentration to a predetermined level, and the liquid containing the test compound was added to the washed cells. […] NO contained in the culture supernatant was quantitated for its stable form (NO2^−) by use of a Griess reagent kit (product of Wako Pure Chemical Industries Ltd.). IL-6 was quantitated by use of an ELISA kit (product of Amersham) in accordance with the manual thereof. […]

[2] = system: carrageenan-induced edema; assay: Anti-inflammatory effect 1: effect against carrageenan-induced edema; format: in vivo; settings: mouse, leg volume 9 days after carrageenan
From the text: Anti-inflammatory Effect 1: Effect Against Carrageenan-induced Edema
Male ICR mice (4 weeks old, Japan Charles River Co., Ltd.) were pre-bred in a breeding cage for about one week, and-healthy mice were selected for the test.
(2) Drugs Employed in the Test:
Each test compound was suspended in a 0.5% carboxymethyl cellulose sodium (0.5% CMC-Na solution, product of Wako Pure Chemical Industries, Ltd.) or dissolved in purified water. The suspension or solution was perorally administered at a dose of 0.1 mL/10 g (body weight of each mouse).
λ-Carrageenan (Picnin A, product of Zushi Kagaku) dissolved in physiological saline was used.
The volume of the right rear leg of each mouse was measured by means of a plethysmometer (product of Ugo Basile). Subsequently, a 2% carrageenan solution (0.05 mL) was injected into the foot pad of the leg. Five days after the injection of carrageenan (inflammation-inducing agent), the volume of the leg was measured. The mice were divided into groups, each group containing 8 mice. From the day of division (i.e., 5 days after administration of carrageenan), each test compound was preorally administered once per day for four days. The leg volume was measured before administration of each test compound and on the day after the final administration day (i.e., 9 days after administration of carrageenan). Percent edema and percent inhibition due to the test compound were calculated in accordance with the following equations, respectively. Percent edema (%)=[(leg volume (mL) after inflammation treatment−leg volume (mL) before inflammation treatment)/(leg volume (mL) before inflammation treatment)]×100 Percent inhibition (%)=[percent edema of control group (%)−percent edema of test-compound-administered group (%))/(percent edema of control group (%))]×100

RAW 264.7 cells [3] = assay: Effect of inhibiting production of IL-6 in LPS-stimulated RAW 264.7 cells (ELISA); format: cell-based; settings: Mus musculus, RAW264.7, compound at 2 μg/mL, read-out: IL-6 production inhibitory effect Percent inhibition (%)
Description: as §1, §2

Compound: 5-(2-[4-(1H-Imidazolylmethyl)phenoxy]ethyl)sulfanil-2,3-diphenylpyrazine [Compound 1I]
- NO production inhibitory effect Percent inhibition (%) (RAW 264.7 cells [1]): 62.8%

Compound: c1ccc(-c2ncc(OCCOc3ccc(Cn4ccnc4)cc3)nc2-c2ccccc2)cc1 [Compound 1A, 5-2-[4-(1H-imidazolylmethyl)phenoxy]ethoxy-2,3-diphenylpyrazine]
- inhibition at 2 µg/mL (RAW 264.7 cells [1]; Mus musculus, RAW264.7, read-out: NO production inhibitory effect Percent inhibition (%)): 86%
- Percent inhibition (%) of carrageenan-induced edema ([2]; 3 mg/kg perorally once per day for four days): 30.5%
- inhibition at 2 µg/mL (RAW 264.7 cells [3]): 54.6%

Compound: [O-][S+](CCOc1ccc(Cn2ccnc2)cc1)c1cnc(-c2ccccc2)c(-c2ccccc2)n1 (stereo not drawn) [Compound 1J, 5-(2-[4-(1H-imidazolylmethyl)phenoxy]ethyl)sulfinyl-2,3-diphenylpyrazine]
- Percent inhibition (%) of carrageenan-induced edema ([2]; 10 mg/kg perorally once per day for four days): 41.2%

Compound: COc1ccc2c(c1)c(CC(=O)O)c(C)n2C(=O)c1ccc(Cl)cc1 [Indomethacin]
- Percent inhibition (%) of carrageenan-induced edema ([2]; 1 mg/kg perorally once per day for four days): 23.8%

Reference: patent publication US6958353B2, “Imidazole derivatives or salts thereof and drugs containing the derivatives or the salts” (Hisamitsu Medical Co., Ltd., priority 2000, dated 2005)
